Measurements as given in patent US20230181614A1, “ADMINISTRATION OF CITICOLINE TO IMPROVE COGNITIVE PERFORMANCE, ATTENTIONAL PERFORMANCE, AND MOTOR FUNCTION” (KYOWA HAKKO BIO CO., LTD., priority 2014, published 2023).

Test system: Healthy subjects, ages 13-18
Experiment: General Questionnaire
Format: in vivo, human
Details: 250 mg/day
Source text: Study participants were screened by telephone prior to study enrollment. Healthy subjects, ages 13-18, with no significant medical conditions and no history of co-morbid psychiatric disorder, current Axis I or II diagnosis, or previous participation in a pharmacotherapeutic trial, were selected. Use of any psychotropic medication or any previous head injury resulting in loss of consciousness for 5 or more minutes were used as exclusion criteria. While no participant met criteria for a neuropsychiatric disorder at enrollment, clinical assessments were still completed throughout the study to evaluate changes in mood state. In addition, self-reports of sleep habits, lifestyle, and exercise routines were also administered at baseline as well as at each study visit to assess changes in health habits during study participation. Following the completion of Visit 1 assessment, participants were given their 28-day supply of citicoline (250 mg or 500 mg) or placebo, which was randomly assigned. They were instructed to take one capsule a day every day for the next 28 days. Visit 2 occurred fourteen days after Visit 1. At Visit 2, the remaining study pills were counted and participant dosage calendars were checked to ensure compliance with the protocol. Additional neuropsychological measures and clinical assessments were administered during this visit. Participants returned for Visit 3 fourteen days later, on the 28th day of their study participation. The pill bottle and the dosage calendar were collected from each participant. Urine and blood were again obtained. Participants also participated in similar clinical and neuropsychological testing and clinical measures that were given during visit 1. The General Questionnaire and Exercise and Life Style Questionnaire are self-report questionnaires designed to assess a variety of symptoms, behaviors, and self-perceptions, including mood, complexion, exercise, food, and alcohol habits of each of the participants. The General Questionnaire was administered during each of the three study visits; the Exercise and Life Style Questionnaire was administered during each of the three study visits. The General Questionnaire included five summary categories (Vision, Depression, Attention, Sleep, and Complexion) each of which had multiple individual items. Within and between group analyses are reported below for each of the summary categories.

SMILES: C[N+](C)(C)CCOP(=O)(O)OP(=O)([O-])OC[C@H]1O[C@@H](n2ccc(N)nc2=O)[C@H](O)[C@@H]1O [citicoline, Cytidine 5′-diphosphocholine]
- Attention Total V3-V1 Difference Mean: -5.58
- Complexion Total V3-V1 Difference Mean: -0.67
- Depression Total V3-V1 Difference Mean: -7.37
- Sleep Total V3-V1 Difference Mean: -5.59
- Vision Total V3-V1 Difference Mean: -2.26
- Attention Total V3 Mean (Visit 3): 38.48
- Complexion Total V3 Mean (Visit 3): 3.96
- Depression Total V3 Mean (Visit 3): 21.04
- Sleep Total V3 Mean (Visit 3): 18.96
- Vision Total V3 Mean (Visit 3): 6.59
- General Questionnaire Attention Q13, Mean (V1 (baseline)): 3.52
- General Questionnaire Attention Q14, Mean (V1 (baseline)): 2.37
- General Questionnaire Attention Q15, Mean (V1 (baseline)): 3.89
- General Questionnaire Attention Q16, Mean (V1 (baseline)): 3.19
- General Questionnaire Attention Q17, Mean (V1 (baseline)): 3.30
- General Questionnaire Attention Q18, Mean (V1 (baseline)): 2.63
- General Questionnaire Attention Q19, Mean (V1 (baseline)): 6.59
- General Questionnaire Attention Q20, Mean (V1 (baseline)): 3.48
- General Questionnaire Attention Q21, Mean (V1 (baseline)): 3.22
- General Questionnaire Attention Q22, Mean (V1 (baseline)): 4.00
- General Questionnaire Attention Q23, Mean (V1 (baseline)): 4.15
- General Questionnaire Attention Q24, Mean (V1 (baseline)): 3.67
- General Questionnaire Attention Total, Mean (V1 (baseline)): 44.31
- General Questionnaire Complexion Q33, Mean (V1 (baseline)): 2.78
- General Questionnaire Complexion Q34, Mean (V1 (baseline)): 1.85
- General Questionnaire Complexion Total, Mean (V1 (baseline)): 4.63
- General Questionnaire Depression Q4, Mean (V1 (baseline)): 2.59
- General Questionnaire Depression Q5, Mean (V1 (baseline)): 3.26
- General Questionnaire Depression Q6, Mean (V1 (baseline)): 2.85
- General Questionnaire Depression Q7, Mean (V1 (baseline)): 4.26
- General Questionnaire Depression Q8, Mean (V1 (baseline)): 2.74
- General Questionnaire Depression Q9, Mean (V1 (baseline)): 3.74
- General Questionnaire Depression Q10, Mean (V1 (baseline)): 2.85
- General Questionnaire Depression Q11, Mean (V1 (baseline)): 2.85
- General Questionnaire Depression Q12, Mean (V1 (baseline)): 3.26
- General Questionnaire Depression Total, Mean (V1 (baseline)): 28.41
- General Questionnaire Sleep Q25, Mean (V1 (baseline)): 3.19
- General Questionnaire Sleep Q26, Mean (V1 (baseline)): 2.78
- General Questionnaire Sleep Q27, Mean (V1 (baseline)): 3.26
- General Questionnaire Sleep Q28, Mean (V1 (baseline)): 3.63
- General Questionnaire Sleep Q29, Mean (V1 (baseline)): 3.48
- General Questionnaire Sleep Q30, Mean (V1 (baseline)): 2.11
- General Questionnaire Sleep Q31, Mean (V1 (baseline)): 1.96
- General Questionnaire Sleep Q32, Mean (V1 (baseline)): 4.15
- General Questionnaire Sleep Total, Mean (V1 (baseline)): 24.56
- General Questionnaire Vision Q1, Mean (V1 (baseline)): 3.44
- General Questionnaire Vision Q2, Mean (V1 (baseline)): 3.26
- General Questionnaire Vision Q3, Mean (V1 (baseline)): 2.15
- General Questionnaire Vision Total, Mean (V1 (baseline)): 8.85
- General Questionnaire Attention Q13, Mean (V3 (day 28)): 2.74
- General Questionnaire Attention Q14, Mean (V3 (day 28)): 2.48
- General Questionnaire Attention Q15, Mean (V3 (day 28)): 3.15
- General Questionnaire Attention Q16, Mean (V3 (day 28)): 2.63
- General Questionnaire Attention Q17, Mean (V3 (day 28)): 2.48
- General Questionnaire Attention Q18, Mean (V3 (day 28)): 2.26
- General Questionnaire Attention Q19, Mean (V3 (day 28)): 6.41
- General Questionnaire Attention Q20, Mean (V3 (day 28)): 3.22
- General Questionnaire Attention Q21, Mean (V3 (day 28)): 3.15
- General Questionnaire Attention Q22, Mean (V3 (day 28)): 3.35
- General Questionnaire Attention Q23, Mean (V3 (day 28)): 3.70
- General Questionnaire Attention Q24, Mean (V3 (day 28)): 2.96
- General Questionnaire Attention Total, Mean (V3 (day 28)): 38.73
- General Questionnaire Complexion Q33, Mean (V3 (day 28)): 2.30
- General Questionnaire Complexion Q34, Mean (V3 (day 28)): 1.67
- General Questionnaire Complexion Total, Mean (V3 (day 28)): 3.96
- General Questionnaire Depression Q4, Mean (V3 (day 28)): 1.81
- General Questionnaire Depression Q5, Mean (V3 (day 28)): 2.30
- General Questionnaire Depression Q6, Mean (V3 (day 28)): 2.00
- General Questionnaire Depression Q7, Mean (V3 (day 28)): 3.33
- General Questionnaire Depression Q8, Mean (V3 (day 28)): 1.81
- General Questionnaire Depression Q9, Mean (V3 (day 28)): 2.89
- General Questionnaire Depression Q10, Mean (V3 (day 28)): 2.07
- General Questionnaire Depression Q11, Mean (V3 (day 28)): 2.15
- General Questionnaire Depression Q12, Mean (V3 (day 28)): 2.67
- General Questionnaire Depression Total, Mean (V3 (day 28)): 21.04
- General Questionnaire Sleep Q25, Mean (V3 (day 28)): 2.33
- General Questionnaire Sleep Q26, Mean (V3 (day 28)): 2.15
- General Questionnaire Sleep Q27, Mean (V3 (day 28)): 2.07
- General Questionnaire Sleep Q28, Mean (V3 (day 28)): 2.78
- General Questionnaire Sleep Q29, Mean (V3 (day 28)): 2.19
- General Questionnaire Sleep Q30, Mean (V3 (day 28)): 1.96
- General Questionnaire Sleep Q31, Mean (V3 (day 28)): 1.93
- General Questionnaire Sleep Q32, Mean (V3 (day 28)): 3.56
- General Questionnaire Sleep Total, Mean (V3 (day 28)): 18.96
- General Questionnaire Vision Q1, Mean (V3 (day 28)): 2.33
